Laboratory results as given in US20260028354A1, “TETRAHYDRONAPHTHALENE DERIVATIVES AS ESTROGEN RECEPTOR DEGRADERS” (REGENT OF THE UNIVERSITY OF MICHIGAN, priority 2022, published 2026).
Read-outs that look alike come from different tables or passages of the source.

Experiments:
ER = ER (Homo sapiens (Human), UniProt P03372); experiment: In-cell western blot analysis of ER for "B" compounds; format: cell-based; settings: 16 hours, read-out: ICW DC50
In short: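 In-cell western: fixed cells stained with primary antibodies (2 h, RT), then anti-rabbit-680 and anti-mouse-800 secondaries (1:1000, 1 h, RT), imaged on a LI-COR plate reader. Relative ER level in treated wells expressed against untreated and DMSO-treated wells set as 100%.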

[1] = Cell growth assay (WST-8) for "B" compounds; format: cell-based; settings: T47D, read-out: Cell growth Inhibition in T47D cell line IC50
In short: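 Cells seeded at 1500/well overnight, then exposed to compounds for 4 days. 10% WST-8 added for 2.5 h at 37 °C and absorbance read at 450 nm. Growth given as absorbance relative to vehicle control, from three repeats.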

Sequence of ER (P03372 whole entry): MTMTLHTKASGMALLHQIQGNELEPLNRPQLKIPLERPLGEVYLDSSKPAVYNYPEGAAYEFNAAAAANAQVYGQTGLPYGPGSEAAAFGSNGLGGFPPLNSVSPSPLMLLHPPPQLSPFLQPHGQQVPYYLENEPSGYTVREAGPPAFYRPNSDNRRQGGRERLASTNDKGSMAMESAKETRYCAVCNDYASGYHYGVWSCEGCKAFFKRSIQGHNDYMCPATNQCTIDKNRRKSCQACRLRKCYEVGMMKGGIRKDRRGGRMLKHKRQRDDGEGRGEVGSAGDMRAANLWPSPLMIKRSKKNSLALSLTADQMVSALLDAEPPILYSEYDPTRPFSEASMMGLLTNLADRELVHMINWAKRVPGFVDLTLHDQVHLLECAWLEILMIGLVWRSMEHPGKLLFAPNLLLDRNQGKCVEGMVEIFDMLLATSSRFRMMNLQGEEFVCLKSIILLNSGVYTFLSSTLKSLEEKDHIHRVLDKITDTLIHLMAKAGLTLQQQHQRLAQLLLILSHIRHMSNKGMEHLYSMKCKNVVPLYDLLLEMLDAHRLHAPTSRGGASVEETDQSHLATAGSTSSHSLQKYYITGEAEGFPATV

SMILES | DC50 (ER) [nM] | IC50 ([1]; T47D cell line) [nM] | IC50 [1] [nM]
O=C1CCC(Nc2ccc(C3CCN(CC4COC5(CCN(c6ccc([C@@H]7c8ccc(O)cc8CC[C@@H]7c7ccccc7)cc6)CC5)C4)CC3)cc2)C(=O)N1 (stereo partly drawn) [Compound B344, 3-((4-(1-((8-(4-((1R,2S)-6-hydroxy-2-phenyl-1,2,3,4-tetrahydronaphthalen-1-yl)phenyl)-1-oxa-8-azaspiro[4.5]decan-3-yl)methyl)piperidin-4-yl)phenyl)amino)piperidine-2,6-dione] | > 100 | 1 to 10 | 
O=C1CCC(N2Cc3c(ccc4c3OCC43CCN(CC4CCN(c5ccc([C@@H]6c7ccc(O)cc7CC[C@@H]6c6ccccc6)cc5)CC4)CC3)C2=O)C(=O)N1 (stereo partly drawn) [Compound B258, 3-(1′-((1-(4-((1R,2S)-6-hydroxy-2-phenyl-1,2,3,4-tetrahydronaphthalen-1-yl)phenyl)piperidin-4-yl)methyl)-6-oxo-6,8-dihydro-2H,7H-spiro[furo[2,3-e]isoindole-3,4′-piperidin]-7-yl)piperidine-2,6-dione] | 10 to 100 |  | < 1
O=C1CCC(Nc2ccc(C3CCN(CC4COC5(CN(c6ccc([C@@H]7c8ccc(O)cc8CC[C@@H]7c7ccccc7)cc6)C5)OC4)CC3)cc2)C(=O)N1 (stereo partly drawn) [Compound B339, 3-((4-(1-((2-(4-((1R,2S)-6-hydroxy-2-phenyl-1,2,3,4-tetrahydronaphthalen-1-yl)phenyl)-5,9-dioxa-2-azaspiro[3.5]nonan-7-yl)methyl)piperidin-4-yl)phenyl)amino)piperidine-2,6-dione] | > 100 | 1 to 10 | 
O=C1CCC(N2Cc3cc4c(cc3C2=O)OC[C@@H]2CN(CC3COC5(CN(c6ccc([C@@H]7c8ccc(O)cc8CC[C@@H]7c7ccccc7)cc6)C5)OC3)CCN42)C(=O)N1 (stereo partly drawn) [Compound B328, 3-((S)-3-((2-(4-((1R,2S)-6-hydroxy-2-phenyl-1,2,3,4-tetrahydronaphthalen-1-yl)phenyl)-5,9-dioxa-2-azaspiro[3.5]nonan-7-yl)methyl)-8-oxo-1,2,3,4,4a,5,8,10-octahydro-9H-pyrazino[1′,2′:4,5][1,4]oxazino[2,3-f]isoindol-9-yl)piperidine-2,6-dione] | 10 to 100 | 1 to 10 | 
O=C1CC[C@H](N2Cc3c(ccc4c3OCC43CCN(CC4CCC5(CCN(c6ccc([C@@H]7c8ccc(O)cc8CC[C@@H]7c7ccccc7)cc6)CC5)OC4)CC3)C2=O)C(=O)N1 (stereo partly drawn) [Compound B366, (3S)-3-(1′-((9-(4-((1R,2S)-6-hydroxy-2-phenyl-1,2,3,4-tetrahydronaphthalen-1-yl)phenyl)-1-oxa-9-azaspiro[5.5]undecan-3-yl)methyl)-6-oxo-6,8-dihydro-2H,7H-spiro[furo[2,3-e]isoindole-3,4′-piperidin]-7-yl)piperidine-2,6-dione] | < 10 |  | < 1
O=C1CCC(N2Cc3c(ccc4c3OCC43CCN(CC(=O)OC4CCN(c5ccc([C@@H]6c7ccc(O)cc7CC[C@@H]6c6ccccc6)cc5)CC4)CC3)C2=O)C(=O)N1 (stereo partly drawn) [Compound B343, 1-(4-((1R,2S)-6-hydroxy-2-phenyl-1,2,3,4-tetrahydronaphthalen-1-yl)phenyl)piperidin-4-yl 2-(7-((S)-2,6-dioxopiperidin-3-yl)-6-oxo-7,8-dihydro-2H,6H-spiro[furo[2,3-c]isoindolc-3,4′-piperidin]-1′-yl)acetate] | > 100 |  | 1 to 10
O=C1CCC(N2Cc3cc4c(cc3C2=O)OC[C@@H]2CN(CC(=O)N3CCN(c5ccc([C@@H]6c7ccc(O)cc7CC[C@@H]6c6ccccc6)cc5)CC3)CCN42)C(=O)N1 (stereo partly drawn) [Compound B145, 3-((S)-3-(2-(4-(4-((1R,2S)-6-hydroxy-2-phenyl-1,2,3,4-tetrahydronaphthalen-1-yl)phenyl)piperazin-1-yl)-2-oxoethyl)-8-oxo-1,2,3,4,4a,5,8,10-octahydro-9H-pyrazino[1′,2′:4,5][1,4]oxazino[2,3-f]isoindol-9-yl)piperidine-2,6-dione] | 10 to 100 | < 1 | 
O=C1CCC(N2Cc3cc4c(cc3C2=O)OC[C@@H]2CN(CC(=O)N3CCC5(CC3)CCN(c3ccc([C@@H]6c7ccc8[nH]ncc8c7CC[C@@H]6c6ccccc6)cc3)CC5)CCN42)C(=O)N1 (stereo partly drawn) [Compound B389, 3-((S)-8-oxo-3-(2-oxo-2-(9-(4-((6R,7S)-7-phenyl-6,7,8,9-tetrahydro-3H-benzo[e]indazol-6-yl)phenyl)-3,9-diazaspiro[5.5]undecan-3-yl)ethyl)-1,2,3,4,4a,5,8,10-octahydro-9H-pyrazino[1′,2′:4,5][1,4]oxazino[2,3-f]isoindol-9-yl)piperidine-2,6-dione] | > 100 | > 10 | 

Continued, in another order:

DC50 (ER) [nM] | SMILES | IC50 ([1]; T47D cell line) [nM] | IC50 [1] [nM]
10 to 100 | CN(C(=O)c1ccc2c(c1)OC[C@H]1CN(CC3CCN(c4ccc([C@@H]5c6ccc(O)cc6CC[C@@H]5c5ccccc5)cc4)CC3)CCN21)C1CCC(=O)NC1=O (stereo partly drawn) [Compound B255, (4aR)-N-(2,6-dioxopiperidin-3-yl)-3-((1-(4-((1R,2S)-6-hydroxy-2-phenyl-1,2,3,4-tetrahydronaphthalen-1-yl)phenyl)piperidin-4-yl)methyl)-N-methyl-1,2,3,4,4a,5-hexahydrobenzo[b]pyrazino[1,2-d][1,4]oxazine-8-carboxamide] | 1 to 10 | 
10 to 100 | O=C1CCC(N2Cc3cc4c(cc3C2=O)OC[C@@H]2CN(CC3COC5(C3)CN(c3ccc([C@@H]6c7ccc(O)cc7CC[C@@H]6c6ccccc6)cc3)C5)CCN42)C(=O)N1 (stereo partly drawn) [Compound B231, 3-((4aS)-3-((2-(4-((1R,2S)-6-hydroxy-2-phenyl-1,2,3,4-tetrahydronaphthalen-1-yl)phenyl)-5-oxa-2-azaspiro[3.4]octan-7-yl)methyl)-8-oxo-1,2,3,4,4a,5,8,10-octahydro-9H-pyrazino[1′,2′:4,5][1,4]oxazino[2,3-f]isoindol-9-yl)piperidine-2,6-dione] | < 1 | 
< 10 | O=C1CC[C@H](N2Cc3c(ccc4c3OC[C@H]3CN(CC(=O)OC5CCN(c6ccc([C@@H]7c8ccc(O)cc8CC[C@@H]7c7ccccc7)cc6)CC5)CCN43)C2=O)C(=O)N1 [Compound B341] | < 1 | 
10 to 100 | O=C1CC[C@H](N2Cc3c(ccc4c3OC[C@H]3CN(CC5COC6(CCN(c7ccc([C@@H]8c9cc(Cl)c(O)cc9CC[C@@H]8c8ccccc8)cc7)CC6)OC5)CCN43)C2=O)C(=O)N1 [Compound B340, (S)-3-((R)-7-((9-(4-((1R,2S)-7-chloro-6-hydroxy-2-phenyl-1,2,3,4-tetrahydronaphthalen-1-yl)phenyl)-1,5-dioxa-9-azaspiro[5.5]undecan-3-yl)methyl)-1-oxo-1,3,5,5a,6,7,8,9-octahydro-2H-pyrazino[1′,2′:4,5][1,4]oxazino[2,3-e]isoindol-2-yl)piperidine-2,6-dione] | 1 to 10 | 
< 10 | O=C1CCC(N2Cc3cc4c(cc3C2=O)OC[C@@H]2CN(CC(=O)N3CC5(CCN(c6ccc([C@@H]7c8ccc(O)cc8CC[C@@H]7c7ccccc7)cc6)C5)C3)CCN42)C(=O)N1 (stereo partly drawn) [Compound B209, 3-((S)-3-(2-(6-(4-((1R,2S)-6-hydroxy-2-phenyl-1,2,3,4-tetrahydronaphthalen-1-yl)phenyl)-2,6-diazaspiro[3.4]octan-2-yl)-2-oxoethyl)-8-oxo-1,2,3,4,4a,5,8,10-octahydro-9H-pyrazino[1′,2′:4,5][1,4]oxazino[2,3-f]isoindol-9-yl)piperidine-2,6-dione] | < 1 | 
